Measurements taken from PubChem BioAssay AID1745844 (Carcinogenic Potency Database (CPDB), 2022).
Several values for one entry are separate records, joined by “and”; a condition that tells them apart may be missing. Identical values can stand only once.

Tested on: rodent lifetime carcinogenesis bioassay, tumor incidence TD50
Assay: carcinogenic potency in animals, long-term in vivo studies, CPDB compilation (AID 1745844)

SMILES: CCc1ccccc1
- TD50 (mouse, strain B6C3F1, females, inhaled, site: Harderian gland, lesion: adenoma, dosed 103 weeks, study length 104 weeks): 9070 mg/kg/day
- TD50 (mouse, strain B6C3F1, females, inhaled, site: any site (literature study), lesion: several types, types named in the paper, dosed 103 weeks, study length 104 weeks): 4070 mg/kg/day
- TD50 (mouse, strain B6C3F1, females, inhaled, site: liver, lesion: hepatocellular adenoma + hepatoblastoma + hepatocellular carcinoma, dosed 103 weeks, study length 104 weeks): 1880 mg/kg/day
- TD50 (mouse, strain B6C3F1, females, inhaled, site: liver, lesion: hepatocellular adenoma + hepatocellular carcinoma, dosed 103 weeks, study length 104 weeks): 1880 mg/kg/day
- TD50 (mouse, strain B6C3F1, females, inhaled, site: liver, lesion: hepatocellular adenoma, dosed 103 weeks, study length 104 weeks): 2450 mg/kg/day
- TD50 (mouse, strain B6C3F1, females, inhaled, site: lung, lesion: alveolar/bronchiolar adenoma + alveolar/bronchiolar carcinoma, dosed 103 weeks, study length 104 weeks): 7950 mg/kg/day
- TD50 (mouse, strain B6C3F1, males, inhaled, site: any site (literature study), lesion: several types, types named in the paper, dosed 103 weeks, study length 104 weeks): 2010 mg/kg/day
- TD50 (mouse, strain B6C3F1, males, inhaled, site: liver, lesion: hepatocellular adenoma + hepatoblastoma + hepatocellular carcinoma, dosed 103 weeks, study length 104 weeks): 9310 mg/kg/day
- TD50 (mouse, strain B6C3F1, males, inhaled, site: lung, lesion: alveolar/bronchiolar adenoma + alveolar/bronchiolar carcinoma, dosed 103 weeks, study length 104 weeks): 1400 mg/kg/day
- TD50 (mouse, strain B6C3F1, males, inhaled, site: lung, lesion: alveolar/bronchiolar adenoma, dosed 103 weeks, study length 104 weeks): 1680 mg/kg/day
- TD50 (rat, strain Fischer 344, males, inhaled, site: adrenal medulla, lesion: pheochromocytoma benign, bilateral + pheochromocytoma, benign, dosed 104 weeks, study length 104 weeks): 125 mg/kg/day
- TD50 (rat, strain Fischer 344, males, inhaled, site: adrenal medulla, lesion: pheochromocytoma benign, bilateral + pheochromocytoma, malignant + pheochromocytoma, benign, dosed 104 weeks, study length 104 weeks): 106 mg/kg/day
- TD50 (rat, strain Fischer 344, males, inhaled, site: any site (literature study), lesion: several types, types named in the paper, dosed 104 weeks, study length 104 weeks): 53 mg/kg/day
- TD50 (rat, strain Fischer 344, males, inhaled, site: kidney + testis, lesion: tubule adenoma + tubule carcinoma + interstitial-cell adenoma, bilateral + interstitial-cell adenoma, dosed 104 weeks, study length 104 weeks): 24.6 mg/kg/day
- TD50 (rat, strain Fischer 344, males, inhaled, site: kidney, lesion: tubule adenoma + tubule carcinoma, dosed 104 weeks, study length 104 weeks): 147 mg/kg/day and 255 mg/kg/day
- TD50 (rat, strain Fischer 344, males, inhaled, site: kidney, lesion: tubule adenoma, dosed 104 weeks, study length 104 weeks): 232 mg/kg/day and 280 mg/kg/day
- TD50 (rat, strain Fischer 344, males, inhaled, site: testis, lesion: interstitial-cell adenoma, bilateral + interstitial-cell adenoma, dosed 104 weeks, study length 104 weeks): 24.8 mg/kg/day
- TD50 (rat, strain Fischer 344, males, inhaled, site: testis, lesion: interstitial-cell adenoma, bilateral, dosed 104 weeks, study length 104 weeks): 23.1 mg/kg/day
- TD50 (rat, strain Sprague-Dawley, females, by gavage, site: any site (literature study), lesion: malignant tumor, dosed 104 weeks, study length 123 weeks): 1610 mg/kg/day
- TD50 (rat, strain Sprague-Dawley, females, by gavage, site: any site (literature study), lesion: malignant tumor, dosed 104 weeks, study length 141 weeks): 1210 mg/kg/day
- TD50 (rat, strain Sprague-Dawley, females, by gavage, site: any site (literature study), lesion: several types, types named in the paper, dosed 104 weeks, study length 141 weeks): 635 mg/kg/day
- TD50 (rat, strain Sprague-Dawley, females, by gavage, site: head, lesion: carcinoma, dosed 104 weeks, study length 123 weeks): 4170 mg/kg/day
- TD50 (rat, strain Sprague-Dawley, females, by gavage, site: nasal cavity, lesion: carcinoma, dosed 104 weeks, study length 123 weeks): 18300 mg/kg/day
- TD50 (rat, strain Sprague-Dawley, females, by gavage, site: nasal cavity, lesion: esthesioneuroepithelioma, dosed 104 weeks, study length 123 weeks): 18300 mg/kg/day
- TD50 (rat, strain Sprague-Dawley, females, by gavage, site: oral cavity, lesion: carcinoma, dosed 104 weeks, study length 123 weeks): 8890 mg/kg/day
- TD50 (rat, strain Sprague-Dawley, males, by gavage, site: any site (literature study), lesion: malignant tumor, dosed 104 weeks, study length 141 weeks): 1980 mg/kg/day
- TD50 (rat, strain Sprague-Dawley, males, by gavage, site: any site (literature study), lesion: several types, types named in the paper, dosed 104 weeks, study length 141 weeks): 1160 mg/kg/day
- TD50 (rat, strain Sprague-Dawley, males, by gavage, site: ear duct, lesion: carcinoma, dosed 104 weeks, study length 123 weeks): 18300 mg/kg/day
- TD50 (rat, strain Sprague-Dawley, males, by gavage, site: head, lesion: carcinoma, dosed 104 weeks, study length 123 weeks): 4350 mg/kg/day
- TD50 (rat, strain Sprague-Dawley, males, by gavage, site: nasal cavity, lesion: esthesioneuroepithelioma, dosed 104 weeks, study length 123 weeks): 5990 mg/kg/day
- TD50 (rat, strain Sprague-Dawley, males, by gavage, site: oral cavity, lesion: carcinoma, dosed 104 weeks, study length 123 weeks): 18300 mg/kg/day
